In brackets after ≈: the same amount, converted by molar mass.
Tests used:
[1] = system: Mycobacterium tuberculosis; test: Antibacterial activity against Mycobacterium tuberculosis H37Rv infected in human THP-1 cells assessed as bacterial growth inhibition; type: functional
[2] = system: Mycobacterium tuberculosis; test: Antibacterial activity against Mycobacterium tuberculosis H37RV ATCC 27294 assessed as bacterial growth inhibition; type: functional
[3] = system: Mycobacterium tuberculosis; test: Antibacterial activity against wild type Mycobacterium tuberculosis H37Rv assessed as bacterial growth inhibition incubated for 6 days by HTS assay; type: functional; settings: 144 h, time 6 day
[4] = system: Mycobacterium tuberculosis; test: Antibacterial activity against Mycobacterium tuberculosis MmpL3 assessed as bacterial growth inhibition by HTS assay; type: functional
[5] = system: Mycobacterium tuberculosis; test: Antibacterial activity against Mycobacterium tuberculosis assessed as bacterial growth inhibition; type: functional
[6] = system: Mycobacterium tuberculosis; test: Antibacterial activity against Mycobacterium tuberculosis H37Rv assessed as bacterial growth inhibition incubated for 6 days by resazurin staining based assay; type: functional; settings: 144 h, time 6 day
[7] = system: Mycobacterium tuberculosis; test: Antibacterial activity against wild type Mycobacterium tuberculosis H37Rv assessed as bacterial growth inhibition by alamar blue staining based assay; type: functional
[8] = system: Mycobacterium tuberculosis; test: Antibacterial activity against wild type Mycobacterium tuberculosis H37Rv assessed as bacterial growth inhibition; type: functional, organism-based
[9] = system: Mycobacterium tuberculosis; test: Antibacterial activity against Mycobacterium tuberculosis H37Rv infected in mouse RAW264.7 cells assessed as bacterial growth inhibition; type: functional
[10] = Oral bioavailability in mouse; type: ADME, organism-based; settings: in vivo
[11] = system: Mycobacterium tuberculosis; test: Antibacterial activity against Mycobacterium tuberculosis H37Rv (ATCC 27294) assessed as bacterial growth inhibition incubated for 7 days by MABA assay; type: functional; settings: 168 h, time 7 day
[12] = system: Mycobacterium tuberculosis; test: Antibacterial activity against wild type Mycobacterium tuberculosis H37Rv infected in BALB/c mouse assessed as bacterial growth inhibition po administrated for 5 days a week via gavage for 4 weeks; type: functional; settings: 672 h
[13] = system: Mycobacterium tuberculosis; test: Antibacterial activity against Mycobacterium tuberculosis H37Rv (ATCC 27294) assessed as bacterial growth inhibition by MABA assay; type: functional
[14] = target: T1, Enoyl-[acyl-carrier-protein] reductase [NADH] (Mycobacterium tuberculosis) (UniProt P9WGR1); test: Inhibition of Mycobacterium tuberculosis InhA assessed as residence time
T1 sequence (whole entry): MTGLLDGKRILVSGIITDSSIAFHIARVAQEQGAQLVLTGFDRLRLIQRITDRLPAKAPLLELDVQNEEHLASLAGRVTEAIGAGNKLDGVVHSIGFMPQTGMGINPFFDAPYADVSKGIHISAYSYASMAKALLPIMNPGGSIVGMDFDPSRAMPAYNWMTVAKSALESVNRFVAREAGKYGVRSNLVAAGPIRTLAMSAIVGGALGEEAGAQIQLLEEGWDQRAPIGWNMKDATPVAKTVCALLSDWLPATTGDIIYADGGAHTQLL

[15] = system: Mycobacterium tuberculosis; test: Antibacterial activity against Mycobacterium tuberculosis H37Rv MTCC 300 assessed as bacterial growth inhibition by alamar blue assay; type: functional
[16] = system: Mycobacterium tuberculosis; test: Antibacterial activity against Mycobacterium tuberculosis assessed as bacterial growth inhibition by HTS assay; type: functional
[17] = system: Mycobacterium tuberculosis; test: Antibacterial activity against Mycobacterium tuberculosis H37Rv infected in mouse RAW264.7 cells assessed as bacterial growth inhibition by REMA assay; type: functional
[18] = system: Mycobacterium tuberculosis; test: Antibacterial activity against Mycobacterium tuberculosis infected in mouse RAW264.7 cells assessed as bacterial growth inhibition by REMA assay; type: functional, organism-based

`Cc1c(Cn2cc(C(=O)NCCO)c3ncccc32)ncnc1OC(F)F` gave an MIC [1] of 0.78 µM (≈ 0.294 µg/mL).
For `OB1c2ccccc2N=C(S)N1c1cccnc1`, the MIC [2] was 31.4 µM (≈ 8.01 µg/mL).
`CC1(C)CCC(NC(=O)c2cc3c(Cl)cc(Cl)cc3[nH]2)CC1` gave an MIC [3] of 0.015 µM (≈ 0.00509 µg/mL).
`CN(C)c1ccc(-c2nc3cc(F)c(-n4ccnc4)cc3n2Cc2ccccc2)cc1` gave an MIC [4] of 30.3 µM (≈ 12.5 µg/mL).
Work on `Oc1cc(Cl)ccc1Oc1ccc(Cl)cc1Cl` [TRICLOSAN] yielded an MIC [5] of 138 µM (≈ 40 µg/mL).
Compound `FC(F)(F)Oc1ccc(Oc2ccc(CN3CCC4(CC3)OCCc3sccc34)cc2)cc1` has an MIC [6] of 0.06 µM (≈ 0.0285 µg/mL).
In the case of `C[C@H]1COC2(CCN(c3nc(=S)c4cc(C(F)(F)F)cc([N+](=O)[O-])c4s3)CC2)O1`, the MIC [7] is reported as 0.02 µM (≈ 0.00895 µg/mL).
Compound `CCOC(=O)NC(=O)c1ccsc1NC(=O)c1nc2ccccc2s1` has an MIC [5] of 0.027 µM (≈ 0.0101 µg/mL).
`CCc1nc2ccc(Cl)cn2c1C(=O)NCc1ccc(N2CCC(c3ccc(OC(F)(F)F)cc3)CC2)cc1` [TELACEBEC] gave an MIC50 [8] of 0.0027 µM (≈ 0.0015 µg/mL), an MIC50 [9] of 0.00028 µM (≈ 0.000156 µg/mL) and a bioavailability [10] of 90%.
`Cc1cn2c(C(=O)NCc3ccc(N4CCC(c5ccc(OC(F)(F)F)cc5)CC4)cc3)c(C)nc2s1` gave an MIC [11] of 0.0009 µM (≈ 0.000476 µg/mL).
With `CC(C)=CCC/C(C)=C/CNCCNC1C2CC3CC(C2)CC1C3` (stereo not drawn) [SQ109] the MIC [5] was 0.78 µM (≈ 0.258 µg/mL).
For `O=c1nc(N2CCN(CC3CCCCC3)CC2)sc2c([N+](=O)[O-])cc(C(F)(F)F)cc12` [MACOZINONE], the MIC [8] was 0.19 ng/mL and the MIC [12] was 0.19 ng/mL (≈ 0.416 nM).
For `Cc1ccc(-c2nc3ccc(C)cn3c2CC(=O)N(C)C)cc1` [ZOLPIDEM], the MIC [13] was 10 µM (≈ 3.07 µg/mL).
For `COc1ccc(CNc2nc3cc(C(F)(F)F)ccc3nc2C(=O)O)cc1`, the MIC [8] was 3.1 µM.
Compound `CCc1ccc([C@H]2C[C@@H](C(F)(F)F)n3ncc(C(=O)NCc4ccc5c(c4)OCO5)c3N2)cc1` has an MIC [6] of 0.16 µM (≈ 0.0756 µg/mL).
With `C[C@H]1COC2(CCN(c3nc(=O)c4cc(C(F)(F)F)cc(-n5cccc5)c4s3)CC2)O1` the MIC [8] was 0.35 µM.
Compound `CC[C@@H](CO)NCCN[C@@H](CC)CO` [ETHAMBUTOL] has an MIC [5] of 10 µM (≈ 2.04 µg/mL).
With `CCc1ccc([C@H]2C[C@@H](C(F)(F)F)n3ncc(C(=O)NCc4ccc(OC)cc4)c3N2)cc1` the MIC [6] was 0.3 µM (≈ 0.138 µg/mL).
`Cc1cn2c(C(=O)NCc3ccc(C(F)(F)F)cc3)c(C)nc2s1` gave an MIC [11] of 0.006 µM (≈ 0.00212 µg/mL).
Work on `C[C@H]1COC2(CCN(c3nc(=O)c4cc(C(F)(F)F)cc([N+](=O)[O-])c4s3)CC2)O1` [BTZ-043] yielded an MIC [8] of 0.00023 µM and an MIC [12] of 1 ng/mL (≈ 2.32 nM).
`c1cc2c(s1)CCOC21CCN(Cc2ccc3c(c2)OCCO3)CC1` showed an MIC [6] of 0.3 µM (≈ 0.107 µg/mL).
With `Cc1c(Cn2cc(C(=O)NCCO)c3ncccc32)ncnc1N(C)C` the MIC [1] was 0.5 µM (≈ 0.177 µg/mL).
Work on `CCCCCCc1ccc(Oc2ccccc2C)c(O)c1` yielded an MIC [5] of 8.46 µM (≈ 2.41 µg/mL) and a TIME [14] of 0.4 h.
For `CCCn1cnc2cc(NCc3ccc(Cl)cc3Cl)ccc21`, the MIC [4] was 16 µM (≈ 5.35 µg/mL).
With `CCCCCCc1ccc(Oc2ccccc2C#N)c(O)c1` the MIC [5] was 11 µM (≈ 3.25 µg/mL) and the TIME [14] was 1.33 h.
`O=C(Nc1nnc(-c2ccc([N+](=O)[O-])cc2)s1)C1CC(=O)N(c2ccccc2)C1` (stereo not drawn) showed an MIC [15] of 61 µM (≈ 25 µg/mL).
Work on `Cc1c(CN2CCN(C)CC2)cc(-c2ccc(Cl)cc2)n1-c1ccc(Cl)cc1` yielded an MIC [16] of 3.62 µM (≈ 1.5 µg/mL).
`CCc1ccn2c(C(=O)NCc3ccc(C)cc3)c(C)nc2c1` showed an MIC [13] of 0.004 µM (≈ 0.00123 µg/mL).
Work on `Cc1c(OCC(F)(F)F)ccnc1C[S+]([O-])c1nc2ccccc2[nH]1` (stereo not drawn) [LANSOPRAZOLE] yielded an IC50 [8] of 2200 nM.
Compound `O=c1nc(N2CCN(CC3CCCCC3)CC2)sc2c(-n3cccc3)cc(C(F)(F)F)cc12` has an MIC [8] of 0.34 µM.
For `Cc1c(CN2CCOCC2)cc(-c2ccc(C(C)C)cc2)n1-c1ccc(F)cc1`, the MIC [16] was 0.12 µM (≈ 0.0471 µg/mL).
For `O=C(C1CCN(c2nnc(-n3cccc3)s2)CC1)N1CCC(Cc2ccccc2)CC1`, the MIC [5] was 4 µM (≈ 1.74 µg/mL).
Work on `Cc1c(OCC(F)(F)F)ccnc1CSc1nc2ccccc2[nH]1` [LANSOPRAZOLE SULFIDE] yielded an IC50 [8] of 460 nM, an MIC90 [17] of 1.13 µM (≈ 0.399 µg/mL) and an IC50 [18] of 590 nM.
Compound `CC1(C)CCC(NC(=O)c2cc3c(F)cc(F)cc3[nH]2)CC1` has an MIC [3] of 0.023 µM (≈ 0.00705 µg/mL).
Compound `Fc1cc2nc(Cc3ccc(Cl)cc3)[nH]c2cc1-n1ccnc1` has an MIC [4] of 76.5 µM (≈ 25 µg/mL).

Reference: ChEMBL document CHEMBL5244210, “Drug discovery in tuberculosis. New drug targets and antimycobacterial agents” (Eur J Med Chem, 2018)
